Laboratory results reported in ChEMBL document CHEMBL5576124, “Discovery of an Exceptionally Orally Bioavailable and Potent HPK1 PROTAC with Enhancement of Antitumor Efficacy of Anti-PD-L1 Therapy” (J Med Chem, 2024).
pIC50: −log10 of the molar value. Activity calls are given as the source filed them. No cut-off for these calls is given here.

Columns and labels:
[1] = biological target: T1, Protein cereblon/Mitogen-activated protein kinase kinase kinase kinase 1 (Homo sapiens, UniProt Q92918+Q96SW2); assay: PROTAC activity at CRBN/HPK1 in human Jurkat cells assessed as degradation of HPK1 protein incubated for 24 hrs by Western blotting analysis; type: cell-based
Target sequence in this assay (Q92918 whole entry): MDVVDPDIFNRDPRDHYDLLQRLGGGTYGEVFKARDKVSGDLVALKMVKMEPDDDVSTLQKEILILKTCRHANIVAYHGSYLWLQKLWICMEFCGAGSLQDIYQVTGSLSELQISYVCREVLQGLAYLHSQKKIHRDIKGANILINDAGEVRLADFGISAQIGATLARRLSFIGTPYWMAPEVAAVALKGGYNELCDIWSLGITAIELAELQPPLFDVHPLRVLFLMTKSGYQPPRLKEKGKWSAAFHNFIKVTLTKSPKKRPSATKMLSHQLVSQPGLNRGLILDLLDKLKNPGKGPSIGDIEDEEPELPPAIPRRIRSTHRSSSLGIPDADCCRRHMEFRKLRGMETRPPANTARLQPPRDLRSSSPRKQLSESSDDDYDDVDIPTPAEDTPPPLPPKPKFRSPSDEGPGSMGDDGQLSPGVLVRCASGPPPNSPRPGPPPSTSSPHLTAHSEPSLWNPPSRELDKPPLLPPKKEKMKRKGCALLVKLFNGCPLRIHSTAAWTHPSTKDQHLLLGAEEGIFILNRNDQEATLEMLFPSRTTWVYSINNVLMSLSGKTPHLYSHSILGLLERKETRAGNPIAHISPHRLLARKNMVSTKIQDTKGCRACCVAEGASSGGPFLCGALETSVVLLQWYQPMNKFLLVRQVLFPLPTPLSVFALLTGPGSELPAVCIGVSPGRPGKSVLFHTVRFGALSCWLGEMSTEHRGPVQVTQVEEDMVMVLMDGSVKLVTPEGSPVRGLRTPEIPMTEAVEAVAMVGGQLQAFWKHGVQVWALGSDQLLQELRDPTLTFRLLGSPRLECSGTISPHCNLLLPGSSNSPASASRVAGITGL
Target sequence in this assay (Q96SW2 whole entry): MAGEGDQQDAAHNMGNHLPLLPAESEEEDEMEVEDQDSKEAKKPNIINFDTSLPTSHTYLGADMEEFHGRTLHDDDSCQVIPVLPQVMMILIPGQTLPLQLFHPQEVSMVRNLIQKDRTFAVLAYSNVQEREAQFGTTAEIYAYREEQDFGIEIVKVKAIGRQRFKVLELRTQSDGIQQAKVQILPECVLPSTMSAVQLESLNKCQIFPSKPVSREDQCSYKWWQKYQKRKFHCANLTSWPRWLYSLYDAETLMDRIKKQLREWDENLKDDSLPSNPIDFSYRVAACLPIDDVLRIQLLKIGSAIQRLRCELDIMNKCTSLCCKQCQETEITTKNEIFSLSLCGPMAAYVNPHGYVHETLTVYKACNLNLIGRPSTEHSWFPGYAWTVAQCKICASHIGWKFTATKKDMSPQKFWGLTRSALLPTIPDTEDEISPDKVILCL

[2] = biological target: T1, Protein cereblon/Mitogen-activated protein kinase kinase kinase kinase 1; assay: PROTAC activity at CRBN/HPK1 in human Jurkat cells assessed as maximal degradation of HPK1 protein incubated for 24 hrs by Western blotting analysis relative to control; type: cell-based
Target sequence in this assay (Q92918 whole entry, looked up): as the sequence (Q92918 whole entry) above
Target sequence in this assay (Q96SW2 whole entry, looked up): as the sequence (Q96SW2 whole entry) above

[3] = Half life in Sprague-Dawley rat at 10 mg/kg,po measured upto 24 hrs by LC-MS analysis; type: ADME, organism-based; settings: in vivo
[4] = Tmax in Sprague-Dawley rat at 10 mg/kg,po measured upto 24 hrs by LC-MS analysis; type: ADME, organism-based; settings: in vivo
[5] = Cmax in Sprague-Dawley rat at 10 mg/kg,po measured upto 24 hrs by LC-MS analysis; type: ADME, organism-based; settings: in vivo
[6] = AUC (0 to t) in Sprague-Dawley rat at 10 mg/kg,po measured upto 24 hrs by LC-MS analysis; type: ADME, organism-based; settings: in vivo
[7] = MRT in Sprague-Dawley rat at 10 mg/kg,po measured upto 24 hrs by LC-MS analysis; type: ADME, organism-based; settings: in vivo
T-cell line = assay: Immunostimulatory activity in human T cell assessed as increase in IL-2 secretion at 10 uM relative to control; type: functional
Jurkat [8] = assay: Antiproliferative activity against human Jurkat cells assessed as inhibition of cell growth at 2 uM incubated for 3 days by CCK-8 assay; type: functional, cell-based; settings: time 3.0 day
Jurkat [9] = assay: Antiproliferative activity against human Jurkat cells assessed as inhibition of cell growth at 10 uM incubated for 3 days by CCK-8 assay; type: functional, cell-based; settings: time 3.0 day
[10] = biological target: Mitogen-activated protein kinase kinase kinase kinase 1 (Homo sapiens, UniProt Q92918); assay: Inhibition of HPK1 (unknown origin)
CT26 = assay: Antitumor activity against mouse CT26 cells implanted BALB/c mouse model assessed as tumor growth inhibition at 25 mg/kg,po administrated once daily for 15 days relative to control; type: functional; settings: CT26, 360 h, time 15 day, read-out: TGI
[11] = biological target: T1, Protein cereblon/Mitogen-activated protein kinase kinase kinase kinase 1; assay: PROTAC activity at CRBN/HPK1 in human Jurkat cells assessed as maximal degradation of HPK1 protein incubated for 24 hrs by Nano-Glo luminescence assay relative to control; type: cell-based
Target sequence in this assay (Q92918 whole entry, looked up): as the sequence (Q92918 whole entry) above
Target sequence in this assay (Q96SW2 whole entry, looked up): as the sequence (Q96SW2 whole entry) above

Sequence of Mitogen-activated protein kinase kinase kinase kinase 1 (Q92918 whole entry): as the sequence (Q92918 whole entry) above

Row | DC50 [1] | Emax [2] | SMILES | also measured
1 | > 10000 nM | 30.1% | Cc1cc(-c2c[nH]c3ncc(-c4ccc(C5CCN(C6CN(C(=O)C7CCN(c8ccc9c(c8)C(=O)N(C8CCC(=O)NC8=O)C9=O)CC7)C6)CC5)cc4)nc23)ccc1C(=O)N(C)C (stereo not drawn) | 
2 | 134 nM | 94.6% | Cc1cc(-c2c[nH]c3ncc(-c4ccc(N5CCN(CC6CN(c7ccc8c(c7)C(=O)N(C7CCC(=O)NC7=O)C8=O)C6)CC5)cc4)nc23)ccc1C(=O)N(C)C (stereo not drawn) | half-life [3]: 4.86 h; Tmax [4]: 3 h; Cmax [5]: 1500 ng/mL; AUC(0-t) at 24 h [6]: 16000 ng·h/mL; MRT [7]: 6.84 h
3 | > 10000 nM | 24.2% | Cc1cc(-c2c[nH]c3ncc(-c4ccc(C5CCN(C6CN(C(=O)C7CCN(c8ccc(C(=O)NC9CCC(=O)NC9=O)cc8)CC7)C6)CC5)cc4)nc23)ccc1C(=O)N(C)C (stereo not drawn) | 
4 | 127 nM | 79.3% | Cc1cc(-c2c[nH]c3ncc(-c4ccc(C5CCN(C6CN(CC7CCN(c8ccc(N9CCC(=O)NC9=O)c(C)c8)CC7)C6)CC5)cc4)nc23)ccc1C(=O)N(C)C | 
5 | 78.8 nM | 84.2% | Cc1cc(-c2c[nH]c3ncc(-c4ccc(C5CCN(C6CN(c7cc8c(cc7F)C(=O)N(C7CCC(=O)NC7=O)C8=O)C6)CC5)cc4)nc23)ccc1C(=O)N(C)C (stereo not drawn) | 
6 | 1060 nM | 58.5% | Cc1cc(-c2c[nH]c3ncc(-c4ccc(C5CCN(CCC6CCN(c7ccc8c(c7)C(=O)N(C7CCC(=O)NC7=O)C8=O)CC6)CC5)cc4)nc23)ccc1C(=O)N(C)C (stereo not drawn) | 
7 | > 10000 nM | 42.6% | Cc1cc(-c2c[nH]c3ncc(-c4ccc(C5CCN(C(=O)C6CN(c7ccc8c(c7)C(=O)N(C7CCC(=O)NC7=O)C8=O)C6)CC5)cc4)nc23)ccc1C(=O)N(C)C (stereo not drawn) | 
8 | > 10000 nM | 22.3% | Cc1cc(-c2c[nH]c3ncc(-c4ccc(N5CCN(c6ccc7c(c6)C(=O)N(C6CCC(=O)NC6=O)C7=O)CC5)cc4)nc23)ccc1C(=O)N(C)C (stereo not drawn) | 
9 | 33.9 nM | 59.9% | Cc1cc(-c2c[nH]c3ncc(-c4ccc(N5CCN(CC6CCN(c7ccc8c(c7)C(=O)N(C7CCC(=O)NC7=O)C8=O)CC6)CC5)cc4)nc23)ccc1C(=O)N(C)C (stereo not drawn) | half-life [3]: 16.7 h; Tmax [4]: 4 h; Cmax [5]: 636 ng/mL; AUC(0-t) at 24 h [6]: 9970 ng·h/mL; MRT [7]: 24.6 h
10 | 246 nM | 56.6% | Cc1cc(-c2c[nH]c3ncc(-c4ccc(N5CCN(CC6CCN(c7ccc8c(c7)C(=O)N(C7CCC(=O)NC7=O)C8=O)C6)CC5)cc4)nc23)ccc1C(=O)N(C)C (stereo not drawn) | 
11 | > 10000 nM | 38% | Cc1cc(-c2c[nH]c3ncc(-c4ccc(C5CCN(CC6CCN(C7CN(c8ccc9c(c8)C(=O)N(C8CCC(=O)NC8=O)C9=O)C7)CC6)CC5)cc4)nc23)ccc1C(=O)N(C)C (stereo not drawn) | 
12 | > 10000 nM | 37.9% | Cc1cc(-c2c[nH]c3ncc(-c4ccc(N5CCN(c6cccc7c6C(=O)N(C6CCC(=O)NC6=O)C7=O)CC5)cc4)nc23)ccc1C(=O)N(C)C (stereo not drawn) | half-life [3]: 4.4 h; Tmax [4]: 1 h; Cmax [5]: 602 ng/mL; AUC(0-t) at 24 h [6]: 4470 ng·h/mL; MRT [7]: 6.8 h
13 | > 10000 nM | 3.4% | Cc1cc(-c2c[nH]c3ncc(-c4ccc(C5CCN(c6ccc7c(c6)C(=O)N(C6CCC(=O)NC6=O)C7=O)CC5)cc4)nc23)ccc1C(=O)N(C)C (stereo not drawn) | 

Continued, compound first:

Row | SMILES | DC50 [1] | Emax [2] | also measured
14 | Cc1cc(-c2c[nH]c3ncc(-c4ccc(C5CCN(C6CN(c7cccc8c7C(=O)N(C7CCC(=O)NC7=O)C8=O)C6)CC5)cc4)nc23)ccc1C(=O)N(C)C (stereo not drawn) | 152 nM | 64.9% | 
15 | Cc1cc(-c2c[nH]c3ncc(-c4ccc(C5CCN(C(=O)CNc6cccc7c6C(=O)N(C6CCC(=O)NC6=O)C7=O)CC5)cc4)nc23)ccc1C(=O)N(C)C (stereo not drawn) | > 10000 nM | 0.1% | 
16 | Cc1cc(-c2c[nH]c3ncc(-c4ccc(C5CCN(C(=O)CCNc6cccc7c6C(=O)N(C6CCC(=O)NC6=O)C7=O)CC5)cc4)nc23)ccc1C(=O)N(C)C (stereo not drawn) | 962 nM | 63.6% | 
17 | Cc1cc(-c2c[nH]c3ncc(-c4ccc(C5CCN(C6CCN(c7ccc8c(c7)C(=O)N(C7CCC(=O)NC7=O)C8=O)C6)CC5)cc4)nc23)ccc1C(=O)N(C)C (stereo not drawn) | 94 nM | 76.6% | 
18 | Cc1cc(-c2c[nH]c3ncc(-c4cc(C)c5c(c4)CN(C)CC5)nc23)ccc1C(=O)N(C)C |  |  | Activity (T-cell line): 34.15%; Activity (Jurkat [8]): Active; Activity (Jurkat [9]): Active; pIC50 [10]: 8.24; inhibition in vivo at 25 mg/kg (CT26): 16.5%
19 | Cc1cc(-c2c[nH]c3ncc(-c4ccc(C5CCN(C6CN(C(=O)Cc7ccc(NC8CCC(=O)NC8=O)cc7)C6)CC5)cc4)nc23)ccc1C(=O)N(C)C (stereo not drawn) | > 10000 nM | 38.5% | 
20 | Cc1cc(-c2c[nH]c3ncc(-c4ccc(C5CCN(C(=O)C6CCN(c7ccc8c(c7)C(=O)N(C7CCC(=O)NC7=O)C8=O)CC6)CC5)cc4)nc23)ccc1C(=O)N(C)C (stereo not drawn) | 1750 nM | 63.6% | 
21 | Cc1cc(-c2c[nH]c3ncc(-c4ccc(C5CCN(C6CN(C(=O)CNc7cccc8c7C(=O)N(C7CCC(=O)NC7=O)C8=O)C6)CC5)cc4)nc23)ccc1C(=O)N(C)C (stereo not drawn) | > 10000 nM | 22.7% | 
22 | Cc1cc(-c2c[nH]c3ncc(-c4ccc(C5CCN(CC6CCN(c7ccc8c(c7)C(=O)N(C7CCC(=O)NC7=O)C8=O)CC6)CC5)cc4)nc23)ccc1C(=O)N(C)C (stereo not drawn) | 420 nM | 84.1% | 
23 | Cc1cc(-c2c[nH]c3ncc(-c4ccc(C5CCN(C6CN(C(=O)C7CCN(c8ccc(NC9CCC(=O)NC9=O)cc8)CC7)C6)CC5)cc4)nc23)ccc1C(=O)N(C)C (stereo not drawn) | > 10000 nM | 41.4% | 
24 | Cc1cc(-c2c[nH]c3ncc(-c4ccc(C5CCN(C(=O)CCOCCOCCOc6cccc7c6C(=O)N(C6CCC(=O)NC6=O)C7=O)CC5)cc4)nc23)ccc1C(=O)N(C)C (stereo not drawn) | 245 nM | 56.6% | half-life [3]: 2.3 h; Tmax [4]: 0.5 h; Cmax [5]: 118 ng/mL; AUC(0-t) at 24 h [6]: 187 ng·h/mL; MRT [7]: 3.6 h
25 | Cc1cc(-c2c[nH]c3ncc(-c4ccc(N5CCN(C6CN(c7ccc8c(c7)C(=O)N(C7CCC(=O)NC7=O)C8=O)C6)CC5)cc4)nc23)ccc1C(=O)N(C)C (stereo not drawn) | 28.2 nM | 68.3% | 
26 | Cc1cc(-c2c[nH]c3ncc(-c4ccc(C5CCN(C6CN(C(=O)C7CN(c8ccc9c(c8)C(=O)N(C8CCC(=O)NC8=O)C9=O)C7)C6)CC5)cc4)nc23)ccc1C(=O)N(C)C (stereo not drawn) | > 10000 nM | 39.4% | 
27 | Cc1cc(-c2c[nH]c3ncc(-c4ccc(C5CCN(C6CN(C7CN(c8ccc9c(c8)C(=O)N(C8CCC(=O)NC8=O)C9=O)C7)C6)CC5)cc4)nc23)ccc1C(=O)N(C)C (stereo not drawn) | 295 nM | 58.1% | 
28 | Cc1cc(F)c(Nc2nc(-c3ccc4c(c3)N(C3CC(N5CCCCC5)C3)C(=O)C43CCN(CCOCCOCCOCCOCCOCCOCCOCCNc4cccc5c4C(=O)N(C4CCC(=O)NC4=O)C5=O)CC3)cc3ncn(C(C)C)c23)cc1C(=O)NC(C)C (stereo not drawn) |  |  | Emax [11]: > 65%
29 | Cc1cc(-c2c[nH]c3ncc(-c4ccc(N5CCN(CCC6CCN(c7ccc8c(c7)C(=O)N(C7CCC(=O)NC7=O)C8=O)CC6)CC5)cc4)nc23)ccc1C(=O)N(C)C (stereo not drawn) | > 10000 nM | 48.2% | 
30 | Cc1cc(-c2c[nH]c3ncc(-c4ccc(C5CCN(CC6CCN(c7ccc8c(c7)C(=O)N(C7CCC(=O)NC7=O)C8=O)C6)CC5)cc4)nc23)ccc1C(=O)N(C)C (stereo not drawn) | 78.8 nM | 84.1% | 
31 | Cc1cc(-c2c[nH]c3ncc(-c4ccc(C5CCN(C(=O)CCOc6cccc7c6C(=O)N(C6CCC(=O)NC6=O)C7=O)CC5)cc4)nc23)ccc1C(=O)N(C)C (stereo not drawn) | > 10000 nM | 6.7% | 
32 | Cc1cc(-c2c[nH]c3ncc(-c4ccc(C5CCN(c6cccc7c6C(=O)N(C6CCC(=O)NC6=O)C7=O)CC5)cc4)nc23)ccc1C(=O)N(C)C (stereo not drawn) | > 10000 nM | 2.8% | 
33 | Cc1cc(-c2c[nH]c3ncc(-c4ccc(N5CCN(C6CCN(c7ccc8c(c7)C(=O)N(C7CCC(=O)NC7=O)C8=O)CC6)CC5)cc4)nc23)ccc1C(=O)N(C)C (stereo not drawn) | 99.2 nM | 56.1% | 
